Data as given in PubChem BioAssay AID256 (DTP/NCI, 2004).
Values joined by “and” are separate entries in the source; they are usually repeats but may differ in a detail not shown here. Equal entries are not always repeated. Inconclusive results and toxic doses are left out.

Test system: CD2F1 mice, L1210 leukemia ip, survival T/C
Assay: NCI In Vivo Anticancer Drug Screen. Data for tumor model L1210 Leukemia (intraperitoneal) in CD2F1 (CDF1) mice
Settings: higher = longer survival
Summary of the method: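 Tumor-bearing mice (transplanted tumor) were split into treated and vehicle control groups, and the measured endpoint of each treated group was divided by that of its vehicle controls.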

[1] = endpoint: mean survival time, dose: 100.0 mg/kg/injection, schedule: Q04DX003 (ip), vehicle: saline with Tween-80
[2] = endpoint: mean survival time, dose: 200.0 mg/kg/injection, schedule: Q04DX003 (ip), vehicle: saline with Tween-80

For `CCNCC(=O)O[C@]1(CC)C(=O)OCc2c1cc1n(c2=O)Cc2cc3ccccc3nc2-1`, the T/C (endpoint: median survival time, dose: 7.5 mg/kg/injection, schedule: Q04DX002 (ip), vehicle: saline) was 122 % of control and 110 % of control, the T/C (endpoint: median survival time, dose: 7.5 mg/kg/injection, schedule: Q04HX004 (iv), vehicle: dextrose) was 164 % of control and the T/C (endpoint: median survival time, dose: 7.5 mg/kg/injection, schedule: Q04HX004 (iv), vehicle: other) was 179 % of control. The T/C (endpoint: median survival time, dose: 15.0 mg/kg/injection, schedule: Q04DX002 (ip), vehicle: saline) was 117 % of control, the T/C (endpoint: median survival time, dose: 15.0 mg/kg/injection, schedule: Q04HX004 (iv), vehicle: dextrose) was 198 % of control and the T/C (endpoint: median survival time, dose: 15.0 mg/kg/injection, schedule: Q04HX004 (iv), vehicle: other) was 195 % of control. The T/C (endpoint: median survival time, dose: 30.0 mg/kg/injection, schedule: Q04DX002 (ip), vehicle: saline) was 170 % of control and 172 % of control, the T/C (endpoint: median survival time, dose: 30.0 mg/kg/injection, schedule: Q04HX004 (iv), vehicle: dextrose) was 208 % of control and the T/C (endpoint: median survival time, dose: 30.0 mg/kg/injection, schedule: Q04HX004 (iv), vehicle: other) was 223 % of control. For the same molecule, the T/C (endpoint: median survival time, dose: 40.0 mg/kg/injection, schedule: Q04HX004 (iv), vehicle: other) was 235 % of control.

For `CC(=O)C(N=Nc1cccc2c1C(=O)c1cccc(Cl)c1C2=O)C(=O)Nc1ccccc1Cl` (centres undefined), the T/C (endpoint: mean survival time, dose: 75.0 mg/kg/injection, schedule: Q01DX001 (ip), vehicle: saline) was 89 % of control and the T/C (endpoint: mean survival time, dose: 150.0 mg/kg/injection, schedule: Q01DX001 (ip), vehicle: saline) was 95 % of control.

For `O=C(CO)c1ccc([N+](=O)[O-])cc1`, the T/C (endpoint: mean survival time, dose: 3.12 mg/kg/injection, schedule: Q01DX009 (ip), vehicle: saline with Tween-80) was 98 % of control and 101 % of control, the T/C (endpoint: mean survival time, dose: 6.25 mg/kg/injection, schedule: Q01DX009 (ip), vehicle: saline with Tween-80) was 96 % of control and 101 % of control and the T/C (endpoint: mean survival time, dose: 12.5 mg/kg/injection, schedule: Q01DX009 (ip), vehicle: saline with Tween-80) was 98 % of control and 101 % of control. For the same molecule, the T/C (endpoint: mean survival time, dose: 25.0 mg/kg/injection, schedule: Q01DX009 (ip), vehicle: saline with Tween-80) was 95 % of control and 96 % of control, the T/C (endpoint: mean survival time, dose: 50.0 mg/kg/injection, schedule: Q01DX009 (ip), vehicle: saline with Tween-80) was 101 % of control and the T/C (endpoint: mean survival time, dose: 100.0 mg/kg/injection, schedule: Q01DX009 (ip), vehicle: saline with Tween-80) was 95 % of control and 101 % of control.

For `CS(=O)(=O)c1cccnn1`, the T/C (endpoint: mean survival time, dose: 100.0 mg/kg/injection, schedule: Q04DX003 (ip), vehicle: saline sonified) was 93 % of control, the T/C (endpoint: mean survival time, dose: 200.0 mg/kg/injection, schedule: Q04DX003 (ip), vehicle: saline sonified) was 98 % of control and the T/C (endpoint: mean survival time, dose: 400.0 mg/kg/injection, schedule: Q04DX003 (ip), vehicle: saline sonified) was 96 % of control.

`O=c1[nH]c(=O)n(C2SC(CO)C(O)C2O)cc1F` (centres undefined) was tested, and the T/C (endpoint: mean survival time, dose: 178.0 mg/kg/injection, schedule: Q01DX009 (ip), vehicle: saline with Tween-80) was 113 % of control, the T/C (endpoint: mean survival time, dose: 267.0 mg/kg/injection, schedule: Q01DX009 (ip), vehicle: saline with Tween-80) was 113 % of control and the T/C (endpoint: mean survival time, dose: 400.0 mg/kg/injection, schedule: Q01DX009 (ip), vehicle: saline with Tween-80) was 119 % of control.

For `O=c1oc(-c2ccccc2Cl)nc2cc(Cl)ccc12`, the T/C [1] was 101 % of control and the T/C [2] was 94 % of control.

`CCCCOS(=O)(=O)c1ccc(N)cc1` was tested, and the T/C [1] was 92 % of control, the T/C [2] was 98 % of control and the T/C (endpoint: mean survival time, dose: 400.0 mg/kg/injection, schedule: Q04DX003 (ip), vehicle: saline with Tween-80) was 97 % of control.

With `CS(=O)(=O)OCCN(CCOS(C)(=O)=O)c1ccc(N=O)cc1` the T/C (endpoint: mean survival time, dose: 0.25 mg/kg/injection, schedule: Q01DX009 (ip), vehicle: saline) was 101 % of control, the T/C (endpoint: mean survival time, dose: 0.5 mg/kg/injection, schedule: Q01DX001 (ip), vehicle: saline) was 113 % of control and the T/C (endpoint: mean survival time, dose: 0.5 mg/kg/injection, schedule: Q01DX005 (ip), vehicle: saline) was 103 % of control. For the same molecule, the T/C (endpoint: mean survival time, dose: 0.5 mg/kg/injection, schedule: Q01DX009 (ip), vehicle: saline) was 91 % of control, the T/C (endpoint: mean survival time, dose: 1.0 mg/kg/injection, schedule: Q01DX005 (ip), vehicle: saline) was 114 % of control and the T/C (endpoint: mean survival time, dose: 1.0 mg/kg/injection, schedule: Q04DX003 (ip), vehicle: saline) was 97 % of control. For the same molecule, the T/C (endpoint: mean survival time, dose: 2.0 mg/kg/injection, schedule: Q01DX001 (ip), vehicle: saline) was 114 % of control, the T/C (endpoint: mean survival time, dose: 2.0 mg/kg/injection, schedule: Q04DX003 (ip), vehicle: saline) was 97 % of control and the T/C (endpoint: mean survival time, dose: 7.5 micrograms/kg/injection, schedule: Q03HX024 (ip), vehicle: saline) was 234 % of control. The T/C (endpoint: mean survival time, dose: 31.3 micrograms/kg/injection, schedule: Q03HX024 (ip), vehicle: saline) was 115 % of control.

For `COc1cccc(CN2CCN(N)CC2)c1`, the T/C (endpoint: mean survival time, dose: 12.5 mg/kg/injection, schedule: Q01DX009 (ip), vehicle: Klucel (hydroxypropylcellulose) (HPC)) was 98 % of control, the T/C (endpoint: mean survival time, dose: 25.0 mg/kg/injection, schedule: Q01DX009 (ip), vehicle: Klucel (hydroxypropylcellulose) (HPC)) was 97 % of control and the T/C (endpoint: mean survival time, dose: 50.0 mg/kg/injection, schedule: Q01DX009 (ip), vehicle: Klucel (hydroxypropylcellulose) (HPC)) was 97 % of control. The T/C (endpoint: mean survival time, dose: 100.0 mg/kg/injection, schedule: Q01DX009 (ip), vehicle: Klucel (hydroxypropylcellulose) (HPC)) was 92 % of control and the T/C (endpoint: mean survival time, dose: 200.0 mg/kg/injection, schedule: Q01DX009 (ip), vehicle: Klucel (hydroxypropylcellulose) (HPC)) was 97 % of control.
